System: PhCMV*-1 and PETR driven SecCell expression
Test: Transient expression of SecCell under antibiotic-responsive promoters in mammalian cells
Assay type: cell-based, human, hamster
Conditions: HEK293-T, HeLa, HT-1080, CHO-K1, BHK-21, transient transfection
From the text: (B) Transient expression of cellulase in HEK293-T, HeLa, HT-1080, BHK-21 and CHO-K1 cells. Cellulase was either driven by a constitutive (PhCMV) or antibiotic-responsive promoters (PhCMV*-1 and PETR).
The Bacillus subtilis endo (1-4)-beta-glucanase was PCR-amplified from genomic DNA and fused to a strong mammalian secretion signal sequence derived from the murine Igk-chain V-12-C region. The secreted cellulase (SecCell) was cloned downstream of a constitutive promoter (PhCMV) as well as two different inducible promoters which enabled doxycycline-(PhCMV*-1) and erythromycin-(PETR) adjustable transgene expression (FIG. 1A).
Cellulase was quantified using EnzCheck® fluorescent substrate (Molecular Probes, Eugene, Oreg., USA) according to the manufacturer's protocol: 20 μl of cell culture supernatant was centrifuged at 16,000×g for one minute to remove cell debris and 15 μl of appropriate dilutions in PBS (Invitrogen, cat. no. 21600-069) were transferred to a 384-well plate containing 15 μl sodium acetate buffer (200 mM sodium acetate, pH 5.5) per well supplemented with 3 μl substrate solution. Plates were incubated at 37° C. for 30 minutes and fluorescence intensity was measured subsequently at 340 nm (excitation wavelength) and 450 nm (emission wavelength) in a Genios Pro multiwell plate reader (Tecan A G, Maennedorf, Switzerland). […]

CC[C@H]1OC(=O)[C@H](C)[C@@H](O[C@H]2C[C@@](C)(OC)[C@@H](O)[C@H](C)O2)[C@H](C)[C@@H](O[C@@H]2O[C@H](C)C[C@H](N(C)C)[C@H]2O)[C@](C)(O)C[C@@H](C)C(=O)[C@H](C)[C@@H](O)[C@]1(C)O [EM, erythromycin]
SecCell production (cellulase activity in the culture supernatants): repressed
